Tests used:
Format in all cases: functional
[1] = system: Influenza A virus; assay: Antiviral activity against recombinant Influenza A virus (A/WSN/1933(H1N1)) H274Y mutant infected in BALB/c mouse assessed as reduction in body weight at 10 mg/kg, po administered 48 hrs postinfection for 5 days measured on day 5 (reference value: 22.2 %); design: scale not given: the % may be the effect or the level left
[2] = system: Influenza A virus; assay: Antiviral activity against recombinant Influenza A virus (A/WSN/1933(H1N1)) H274Y mutant infected in BALB/c mouse assessed as time to death at 1 mg/kg, po administered 4 hrs before infection on day 5 (reference value: 5.1 days)
[3] = system: Influenza A virus; assay: Antiviral activity against recombinant Influenza A virus (A/WSN/1933(H1N1)) H274Y mutant infected in BALB/c mouse assessed as reduction in body weight at 1 mg/kg, po administered 4 hrs before infection for 5 days measured on day 5 (reference value: 22.2 %); design: scale not given: the % may be the effect or the level left
[4] = system: Influenza A virus; assay: Antiviral activity against recombinant Influenza A virus (A/WSN/1933(H1N1)) H274Y mutant infected in BALB/c mouse assessed as lung viral titer at 10 mg/kg, po administered 48 hrs postinfection for 5 days measured on day 4 (reference value: 1 x 10^6 +/- 0.3 x 10^6 PFU)
[5] = system: Influenza A virus; assay: Antiviral activity against recombinant Influenza A virus (A/WSN/1933(H1N1)) H274Y mutant infected in BALB/c mouse assessed as time to death at 10 mg/kg, po administered 48 hrs postinfection for 5 days (reference value: 5.1 days)
[6] = system: Influenza A virus; assay: Antiviral activity against recombinant Influenza A virus (A/WSN/1933(H1N1)) H274Y mutant infected in BALB/c mouse assessed as reduction in body weight at 1 mg/kg, po administered 48 hrs postinfection for 5 days measured on day 5 (reference value: 22.2 %); design: scale not given: the % may be the effect or the level left
[7] = system: Influenza A virus; assay: Antiviral activity against recombinant Influenza A virus (A/WSN/1933(H1N1)) H274Y mutant infected in BALB/c mouse assessed as lung viral titer at 1 mg/kg, po administered 4 hrs before infection for 5 days measured on day 4 (reference value: 1 x 10^6 +/- 0.3 x 10^6 PFU)
[8] = system: Influenza A virus; assay: Antiviral activity against recombinant Influenza A virus (A/WSN/1933(H1N1)) H274Y mutant infected in BALB/c mouse assessed as mortality rate at 1 mg/kg, po administered 4 hrs before infection for 5 days measured on day 5 (reference value: 100 %)
[9] = system: Influenza A virus; assay: Antiviral activity against recombinant Influenza A virus (A/WSN/1933(H1N1)) H274Y mutant infected in BALB/c mouse assessed as mortality rate at 10 mg/kg, po administered 48 hrs postinfection for 5 days measured on day 5 (reference value: 100 %)
[10] = system: Influenza A virus; assay: Antiviral activity against recombinant Influenza A virus (A/WSN/1933(H1N1)) H274Y mutant infected in BALB/c mouse assessed as lung viral titer at 1 mg/kg, po administered 48 hrs postinfection for 5 days measured on day 4 (reference value: 1 x 10^6 +/- 0.3 x 10^6 PFU)
[11] = system: Influenza A virus; assay: Antiviral activity against recombinant Influenza A virus (A/WSN/1933(H1N1)) H274Y mutant infected in BALB/c mouse assessed as mortality rate at 1 mg/kg, po administered 48 hrs postinfection for 5 days measured on day 5 (reference value: 100 %)
[12] = system: Influenza A virus; assay: Antiviral activity against recombinant Influenza A virus (A/WSN/1933(H1N1)) H274Y mutant infected in BALB/c mouse assessed as time to death at 1 mg/kg, po administered 48 hrs postinfection for 5 days (reference value: 5.1 days)
[13] = system: Influenza A virus; assay: Antiviral activity against recombinant Influenza A virus (A/WSN/1933(H1N1)) H274Y mutant infected in BALB/c mouse assessed as lung viral titer at 10 mg/kg, po administered 4 hrs before infection for 5 days measured on day 4 (reference value: 1 x 10^6 +/- 0.3 x 10^6 PFU)
[14] = system: Influenza A virus; assay: Antiviral activity against recombinant Influenza A virus (A/WSN/1933(H1N1)) H274Y mutant infected in BALB/c mouse assessed as mortality rate at 10 mg/kg, po administered 4 hrs before infection for 5 days measured on day 5 (reference value: 100 %)
[15] = system: Influenza A virus; assay: Antiviral activity against recombinant Influenza A virus (A/WSN/1933(H1N1)) H274Y mutant infected in BALB/c mouse assessed as reduction in body weight at 10 mg/kg, po administered 4 hrs before infection for 5 days measured on day 5 (reference value: 22.2 %); design: scale not given: the % may be the effect or the level left

SMILES	Activity [1] [%]	Time [2] [days]	Activity [3] [%]	PFU [4]	Time [5] [days]	Activity [6] [%]	PFU [7]	Activity [8] [%]	Activity [9] [%]	PFU [10]	Activity [11] [%]	Time [12] [days]	PFU [13]	Activity [14] [%]	Activity [15] [%]
CCOC(=O)C1=C[C@@H](OC(CC)CC)[C@H](NC(C)=O)[C@@H](N)C1 [OSELTAMIVIR]	21.5	5.1	23.7	13000	5.2	20.1	190000	100	75	230000	100	5	–	–	–
C/C=C\[C@@H]1C[C@H](C(=O)OC(C)C)N[C@H]1[C@@H](NC(C)=O)[C@](C)(CCC)OC	15.6	5	10.8	130000	5.4	19	69000	0	25	83000	75	–	35000	0	5
